Results as given in US12005068B2, “Formulation including doxycycline hyclate and method for administering the same” (priority 2017, dated 2024).

Legend:
Assay type in all cases: in vivo
idiopathic neuropathy = test: Example 7: human subject with idiopathic neuropathy; settings: patient statement
Method: The following in vivo study of a human subject diagnosed with idiopathic neuropathy.
A patient presented with idiopathic ice-cold burning sensations on the lateral surface area of the right shin/calf. The pain began 6 years ago and has stayed constant.
The patient then began a new treatment course to alleviate the pain. This treatment is the presently disclosed novel formulation of topical doxycycline hyclate suspension at a concentration of 400 mg/g. Each dose was 4m1 to the affected right shin. They applied it topically to the affected areas when they were feeling the pain. They began applying it only once a day for 2 weeks before bed.

multiple sclerosis = test: Example 5: human subject with multiple sclerosis, leg pain triggered by AVONEX injection; settings: patient history
From the text: The following in vivo study of a human subject diagnosed with multiple sclerosis.
A patient presented with excruciating pain in their quadriceps that extended down to their calves. The pain was triggered by the weekly injection of AVONEX (interferon beta-1a) the patient was taking in order to manage their multiple sclerosis. They could not sleep due to the pain.
The patient then began a new treatment course to alleviate the pain. This treatment is a novel formulation of topical doxycycline hyclate suspension at a concentration of 400 mg/g. Each dose was 4 ml per leg and 2 ml per arm/hands. They applied it to the affected areas when they were feeling the pain. They also applied it at work when they would get pains from handling complex machines such as nail guns.

[1] = test system: chemotherapy induced peripheral neuropathy; test: Example 1: human subject with chemotherapy induced peripheral neuropathy, Treatment-Induced Neuropathy Assessment Scale and reported symptoms; settings: patient history before the disclosed treatment
From the text: A patient complained of a tingling and burning sensation in their hands and feet that began shortly after they commenced chemotherapy. The patient had been previously diagnosed with primary peritoneal cervical cancer. While it was recommended that the patient undergo chemotherapy treatment for 18 weeks, the patient was unable to tolerate the side effects of the treatment after 11 weeks and ceased the treatment sessions. […] The patient experienced the same side effects again and sought help to alleviate their pain.
Upon physical examination by a practicing physician their gait was abnormal. Some of their symptoms included: • (a) The patient had poor coordination. In particular, when the patient would stop looking at their feet, they would lose all sense of proprioception (i.e., their sense of the relative position of the body and strength of effort being employed in movement) was lost. The patient thus used a cane as they had trouble with stability. • (b) The patient's sense of touch was poor. For example, the patient could not distinguish different textures as everything felt like silk to them. • (c) The patient's sense of temperature was also poor. […] • (d) There was an altered temperature sensation. They were hyper sensitized to slight changes in temperature. […] They could not write, hold a phone, pick up change, buckle themself in a seat, or dress themself. In the absence of a stimulus, the patient felt the tingling, burning sensations in their hands and feet. • (e) The patient's sensations would be exacerbated upon the introduction of a non-noxious stimulus.
Based on the above, the patient was diagnosed with chemotherapy induced peripheral neuropathy. […] Some of the attempted medications were PERCOSET, GABAPENTIN, TYLENOL, ADVIL, LIDOCAINE, and CAPSAICIN. Numerous other over-the-counter medications were tried. Other attempted treatments included acupuncture.
In an embodiment of the presently disclosed treatment, a formulation of topical doxycycline hyclate suspension at a concentration of 400 mg/g. The prescribed administration included applying the formulation to the patient's hands and feet 2-3 times daily as needed for the pain. Each dose was 2 ml per foot, per hand, and per leg. Over the course of at least 18 months, the patient used the formulation every day during the remainder of the patient's second regiment of chemotherapy. […] In particular, immediately after applying the topical doxycycline for the very first time, the patient found relief in the tingling, burning feeling in the hands and feet. […] They were able to pick up change.
Quantitatively, data was collected for at least 7 months on a “Treatment-Induced Neuropathy Assessment Scale” as shown in Table 1 below. The scale was proven in the scientific literature to be an effective tool to quantify change in symptoms presented by patients with peripheral neuropathy. The patient needed to assess their pain from a scale of 0 (non-existent) to 10 (unbearable pain). Throughout all the categories, the patient's pain went down. In some categories the pain was diminished altogether.

osteoarthritis = test: Example 6: human subject with osteoarthritis in both knees; settings: patient history; side effects put them in a worse state
Method: The following in vivo study of a human subject diagnosed with osteoarthritis.
A patient presented with osteoarthritis in both knees due to a previous trauma years ago in their life. Their knees are in a constant state of pain and inflammation. They also have arthritis in the toe joints and shoulder.
The patient then began a new treatment course to alleviate the pain. This treatment is a novel formulation of topical doxycycline hyclate suspension at a concentration of 400 mg/g. Each dose was 2 ml per knee. They applied it to the affected areas when they were feeling the pain. By the next day the patient feels minimal pain. They apply 1.5 ml of the topical doxycycline suspension daily for a week at night. […] undergoes this treatment once every 4-6 months.

[2] = test system: osteoarthritis of the left knee; test: Example 2: human subject with osteoarthritis of the left knee; settings: patient history; once relieved pain for 3 months
From the text: The following in vivo study of a human subject diagnosed with osteoarthritis of the left knee.
A patient presented with complaints of left knee pain. The patient had been previously diagnosed with progressive osteoarthritis of the left knee. They had undergone two knee surgeries, but the pain came back within a few months. […] Their specialist said that the they were too young and too overweight for a full knee replacement surgery so they must rely on narcotic pain medications and hydrocortisone shots until they are a good candidate for the replacement surgery.
The patient then began the currently disclosed treatment course to alleviate the pain from their osteoarthritis. As already discussed, the currently disclosed treatment is a topical doxycycline hyclate suspension at a concentration of 400 mg/g. They applied it to the knee twice a day. Each dose was approximately 4 ml per knee spread topically over the knee. Preferably, an application covers the affected area with a thin layer of the suspension. One application was before bedtime and the other was in the morning before going to work. The patient has been using it every day for the past month.

For CC(C)Cc1ccc(C(C)C(=O)O)cc1 (stereo not shown) [Ibuprofen], the “effect of previous medications on pain” value (idiopathic neuropathy) was “did not help”.

With CC(C)Cc1ccc(C(C)C(=O)O)cc1 (stereo not shown) [MOTRIN, ibuprogen] the “effect of previously taken medications on pain” value (multiple sclerosis) was “not as effective as they hoped”.

In the case of NCC1(CC(=O)O)CCCCC1 [GABAPENTIN], the “effect of previously attempted medications on the patient's symptoms” value (from here on “effect … on the patient's symptoms”) [1] was “failed to address the patient's symptoms”.

For COc1cc(CNC(=O)CCCC/C=C/C(C)C)ccc1O [CAPSAICIN], the “effect … on the patient's symptoms” value [1] was “failed to address the patient's symptoms”.

For CC(C)Cc1ccc(C(C)C(=O)O)cc1 (stereo not shown) [ADVIL, ibuprofen], the “effect … on the patient's symptoms” value [1] was “failed to address the patient's symptoms”.

CC(=O)Nc1ccc(O)cc1 [TYLENOL, acetaminophen] was tested, and the “effect of previously tried medications on pain” value (osteoarthritis) was “did not help manage the pain”, the “effect … on the patient's symptoms” value [1] was “failed to address the patient's symptoms” and the “effect of previously taken medications on pain” value (multiple sclerosis) was “not as effective as they hoped”.

For C[C@]12CCC(=O)C=C1CC[C@@H]1[C@@H]2[C@@H](O)C[C@@]2(C)[C@H]1CC[C@]2(O)C(=O)CO [hydrocortisone], the “duration of pain relief after shots” value [2] was 3 weeks.

CCN(CC)CC(=O)Nc1c(C)cccc1C [LIDOCAINE] was tested, and the “effect … on the patient's symptoms” value [1] was “failed to address the patient's symptoms”.
